Data published in patent US9751832B2, “Selective histone deactylase 6 inhibitors” (H. LEE MOFFITT CANCER CENTER AND RESEARCH INSTITUTE, INC., priority 2013, dated 2017).
Like-named read-outs stand apart in the source and are kept apart here.

Legend:
[1] = target: HDAC6 (Homo sapiens (Human), UniProt Q9UBN7); assay: HDAC inhibition assay, HDAC6; format: biochemical
[2] = target: HDAC1 (Homo sapiens (Human), UniProt Q13547); assay: HDAC inhibition assay, HDAC1; format: biochemical
[3] = tested on: B16 murine melanoma cells; assay: B16 melanoma cell growth inhibition assay (MTS); format: cell-based; details: 48 h
Description: B16 murine melanoma cells were plated at 5×10^3/well in 96 well flat bottom plates. The following day, media was changed to that containing various concentrations of HDACi or matched DMSO vehicle concentrations diluted in complete medium done in triplicate. […] Briefly, 20 μL of reagent were added per well and incubated at 37° C. for 3 hours.

[4] = tested on: acetyl-α-tubulin and acetyl-H3 in B16 melanoma cells; assay: Tubulin and histone acetylation Western blot assay; format: cell-based, murine
Description: […]. B16 melanoma cells were plated at 10^5 cells/well in 12 well plates and allowed to adhere overnight. A 50 mM stock of compound was then added by serial dilutions in complete medium to the indicated concentrations. Cells were incubated for 24 h under humidified conditions (37° C., 5% CO2). Wells were then washed with cold PBS, and cells were lysed in a buffer containing 10 mM Tris-HCl pH 8.0, 10% SDS, […], 100 mM DTT, and 1× protease inhibitor (Roche). Cells were lysed for 30 min on ice and then sonicated for 8 min (8 cycles of 30 s on/30 s rest). Cells were then boiled for 10 min with 6× gel loading buffer and resolved on 4-15% gradient gels and subsequently transferred onto nitrocellulose membranes. Membranes were blocked with 5% milk in PBS-T and detection of specific antigens using antibodies against acetyl-H3 and H3 (Cell Signaling), and acetyl-α-tubulin and α-tubulin (Sigma). Bands were detected by scanning blots with LI-COR Odyssey imaging system using both 700 and 800 channels.

[5] = tested on: acetyl-tubulin and acetyl-histone3 in human melanoma cell lines; assay: Western blot of HDAC substrate acetylation in human melanoma cell lines; format: cell-based; details: for acetyl-tubulin and acetylation status of Histone 3: WM795 cells, 24 hrs, FIG. 47
Description: To confirm the selectivity of isotype specific HDACi, Western blot analysis was performed on the acetylation status of known HDAC substrates including histone H3 and H4, which are known Class I HDAC targets, and α-tubulin, a target for HDAC6. The doses required to impart the anti-proliferative effect coincided with that needed to increase acetylation of the respective HDAC substrates (FIG. 41F-41H). […] Conversely, HDAC6 selective inhibitors (HDAC6i) increase α-tubulin acetylation but not histone acetylation (FIG. 41F).

[6] = tested on: melanoma antigens gp100, MART1, TYRP1 and TYRP2; assay: Expression of tumor antigens in human melanoma cells (qRT-PCR); format: cell-based; details: 48 hours
Description: (D) Expression of tumor antigens was measured in human WM164 non-target and HDAC6KD cells. (E) Expression of tumor antigens mart-1 and gp-100 was measured by western blot.

[7] = tested on: B16 melanoma; assay: In vivo B16 melanoma tumor growth in C57BL/6 mice; details: for Tumor growth: 25 mg/kg, intraperitoneal, three times weekly
[8] = tested on: IL-10 production in PEM and RAW264.7 cells; assay: IL-10 production in antigen presenting cells (ELISA); format: cell-based, murine; details: 24 hrs
Description: Murine peritoneal elicited primary macrophages (PEM)(A) and murine RAW264.7 (B) cells were incubated with JB7-19, JB7-22, JB720 at the concentration indicated on each chart. After 24 hrs, the production of IL-10 was measured by ELISA.

[9] = tested on: HuT-78, murine MCL, B16 and SM1 cells; assay: Cell viability of cancer cells (CellTiter 96 Aqueous ONE); format: cell-based, human and murine; details: 24 hrs, compared to DMSO
Description: Human cutaneous T-cell lymphoma (CTCL) HuT-78 (A), murine mantle cell lymphoma (MCL) (B), and murine melanoma B16 (C) and SM1 (D) cells were incubated with JB7-19, JB7-22, JB720 at different concentrations for 24 hrs. Cell viability was measured using CellTiter 96 Aqueous ONE solution (Promega, Madison, Wis.) and compared to DMSO treated control samples. Error bars represent standard deviation from triplicates.

[10] = tested on: NRAS and BRAF mutant human melanoma cell lines; assay: Cell proliferation of human melanoma cell lines (MTS, 24 h); format: cell-based
Description: Cell proliferation was evaluated using various pan- and isotype selective HDACi in a broad panel of human melanoma cell lines. Briefly, cells were plated at 10×10^3/well in a 96 well flat bottom plate. The following day, media was changed to that containing different concentrations of HDACi or matched DMSO vehicle concentrations diluted in complete medium done in triplicate, all with a final concentration of less than 0.1% DMSO. Cells were incubated for 24 hours at 37° C. and 5% CO2. […] All values were then normalized and expressed as a percentage of medium control growth.

[11] = tested on: human melanoma cell lines; assay: Cell cycle analysis by propidium iodide staining; format: cell-based; details: FACS
Description: Cells were treated with indicated doses of HDAC inhibitors or DMSO control and then trypsinized, washed, and rendered into a single cell suspension in 1 mL of DPBS. 4 mL ice cold 200 proof ethyl alcohol was added dropwise while vortexing to fix cells. Samples were washed and resuspended in 75% ethanol solution overnight. Then, cells were washed in PBS+0.1% Triton X-100 and counted. Equal numbers of cells were then stained in a solution containing 10 μg/mL RNAseA+1 μg/mL propidium iodide for 2 hours at room temperature. Data was then acquired using a FACSCaliber with at least 10,000 events collected. Cell cycle analysis was completed using ModFit LT (Verity Software House, Topsham, Me.).

[12] = tested on: MHC expression on melanoma cells; assay: Surface marker analysis of melanoma cells by flow cytometry; format: cell-based, human and murine; details: 3 μM, 48 hours, B16 and WM793
Description: For surface marker analysis melanoma cells were treated with TubastatinA or DMSO for 48 hrs, and/or using Non target and HDAC6KD cell lines, Cells were singly stained with phycoerythryn (PE) conjugated antibodies against MHC I, MHC II, CD40, CD80, CD86. Conjugated antibodies were purchases from eBioscience (San Diego, Calif., USA). After staining for 30 minutes at 4° C., cells were washed three times and then resuspended in buffer containing DAPI (50 ng/mL) for viability. At least 10,000 events were collected using an LSR II (BD) and subsequently analyzed using FlowJo software.2.2.7.

[13] = tested on: MCL; assay: In vivo treatment of MCL-bearing mice
[14] = tested on: STAT3 phosphorylation in APCs; assay: STAT3 phosphorylation and recruitment to the IL-10 gene promotor in APCs; format: cell-based
[15] = tested on: macrophages; assay: Tubastatin A treatment of macrophages (APCs) in vitro; format: cell-based
[16] = tested on: JAK2/STAT3 phosphorylation in B16 murine melanoma cells; assay: JAK2/STAT3 phosphorylation in B16 melanoma in vivo
[17] = tested on: antigen-specific T-cells; assay: In vivo antigen-specific T-cell response to vaccination; design: species or system mice; details: in vivo treatment
[18] = tested on: B16 WT melanoma; assay: In vivo B16 melanoma tumor growth in SCID mice
Excerpt: To further characterize the relative contribution of anti-tumor immunity, specific subsets of cells were depleted via antibody depletion, which was confirmed by staining leukocytes from spleen. […] Taken together, these observations support the anti-melanoma activity of a functional immune system after HDAC6 inhibition.

[19] = Table 2, cyclic urea compounds, read-out: HDAC6 IC50
[20] = Table 2, cyclic urea compounds, read-out: HDAC1 IC50
[21] = Table 1B, read-out: IC50 (μM) HDAC6
[22] = Table 1B, read-out: IC50 (μM) HDAC1

Chain of HDAC1 (Q13547 whole entry): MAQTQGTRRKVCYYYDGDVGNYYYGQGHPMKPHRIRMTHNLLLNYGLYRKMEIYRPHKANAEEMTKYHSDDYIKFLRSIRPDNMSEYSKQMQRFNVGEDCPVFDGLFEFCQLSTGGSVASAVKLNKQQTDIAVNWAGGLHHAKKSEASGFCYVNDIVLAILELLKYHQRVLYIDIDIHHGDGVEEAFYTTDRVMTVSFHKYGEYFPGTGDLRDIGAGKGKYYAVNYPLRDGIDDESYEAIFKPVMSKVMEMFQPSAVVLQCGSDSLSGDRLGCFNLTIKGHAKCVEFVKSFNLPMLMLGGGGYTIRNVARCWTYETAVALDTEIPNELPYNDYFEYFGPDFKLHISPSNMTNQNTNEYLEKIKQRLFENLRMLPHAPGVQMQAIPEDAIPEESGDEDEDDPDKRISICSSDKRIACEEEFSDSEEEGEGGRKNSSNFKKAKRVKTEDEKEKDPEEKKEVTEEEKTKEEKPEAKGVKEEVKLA
Chain of HDAC6 (Q9UBN7 whole entry): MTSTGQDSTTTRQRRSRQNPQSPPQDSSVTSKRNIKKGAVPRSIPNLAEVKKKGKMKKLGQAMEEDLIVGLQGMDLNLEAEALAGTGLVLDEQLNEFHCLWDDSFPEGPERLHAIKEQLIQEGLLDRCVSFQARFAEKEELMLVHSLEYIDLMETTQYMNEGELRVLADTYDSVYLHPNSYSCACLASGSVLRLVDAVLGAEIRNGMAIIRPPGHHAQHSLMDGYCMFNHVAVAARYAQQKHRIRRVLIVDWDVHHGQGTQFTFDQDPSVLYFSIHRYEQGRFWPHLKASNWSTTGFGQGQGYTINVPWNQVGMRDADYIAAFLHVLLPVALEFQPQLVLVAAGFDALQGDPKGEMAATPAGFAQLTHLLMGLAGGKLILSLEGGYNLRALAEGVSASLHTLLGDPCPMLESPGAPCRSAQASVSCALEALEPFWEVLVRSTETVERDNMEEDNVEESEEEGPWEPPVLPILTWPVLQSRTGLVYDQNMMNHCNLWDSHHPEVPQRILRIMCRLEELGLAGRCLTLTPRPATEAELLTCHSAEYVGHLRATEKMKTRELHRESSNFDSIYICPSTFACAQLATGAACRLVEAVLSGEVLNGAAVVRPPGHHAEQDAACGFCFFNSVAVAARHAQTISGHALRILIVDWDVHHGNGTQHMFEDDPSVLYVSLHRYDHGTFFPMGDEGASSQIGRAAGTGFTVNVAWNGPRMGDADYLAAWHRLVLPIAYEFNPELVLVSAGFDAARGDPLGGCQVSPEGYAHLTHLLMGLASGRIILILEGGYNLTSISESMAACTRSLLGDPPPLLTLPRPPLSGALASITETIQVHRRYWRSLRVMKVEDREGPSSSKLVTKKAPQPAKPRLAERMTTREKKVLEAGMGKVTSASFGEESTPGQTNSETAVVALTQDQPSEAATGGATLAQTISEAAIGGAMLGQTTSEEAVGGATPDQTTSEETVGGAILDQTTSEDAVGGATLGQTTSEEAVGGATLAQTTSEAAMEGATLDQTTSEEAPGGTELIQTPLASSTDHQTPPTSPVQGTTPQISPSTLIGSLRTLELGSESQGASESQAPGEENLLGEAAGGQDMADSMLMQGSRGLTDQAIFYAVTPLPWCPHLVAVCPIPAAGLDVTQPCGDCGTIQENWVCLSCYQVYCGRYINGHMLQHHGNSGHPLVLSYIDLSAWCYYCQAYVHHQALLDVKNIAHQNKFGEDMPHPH

COc1ccccc1NC(=O)NCc1ccc(C(N)=O)cc1 [Compound 1]
IC50 ([1]; Table 1A, mean of two experiments ± standard deviation, read-out: HDAC6 IC50): 0.139 ± 0.027 µM | IC50 ([2]; Table 1A, mean of two experiments ± standard deviation, read-out: HDAC1 IC50): 0.265 ± 0.059 µM

COc1ccccc1NC(=O)N(CCCO)Cc1ccc(C(=O)NO)cc1 [Compound 5b, N-hydroxy-4-((1-(3-hydroxypropyl)-3-(2-methoxyphenyl)ureido)methyl)-benzamide]
Growth inhibition of B16 melanoma cells (in words) [3]: performed very poorly

COCCCN(Cc1ccc(C(=O)NO)cc1)C(=O)Nc1ccccc1 [Compound 5e, N-hydroxy-4-((1-(3-methoxypropyl)-3-phenylureido)methyl)benzamide]
Fold Selective (HDAC1/HDAC6) ([1]; Table 1A): > 400 fold

CCCCN(Cc1ccc(C(=O)NO)cc1)C(=O)Nc1ccccc1 [Compound 5g, 4-((1-butyl-3-phenylureido)methyl)-N-hydroxybenzamide]
histone H3 acetylation ([4]; concentrations of 1 and 10 μM): observable increase | acetyl α-tubulin levels ([4]; low nanomolar treatment, 24 h): dose-dependant increase | histone H3 acetylation ([4]; low nanomolar treatment, 24 h): without a concamanent elevation | acetyl-tubulin and acetylation status of Histone 3 [5]: increase acetyl-tubulin without modifying the acetylation status of Histone 3 | Expression of melanoma antigens at the mRNA level [6]: upregulation of melanoma antigens | Tumor growth [7]: delayed tumor growth | Growth inhibition of B16 melanoma cells (in words) [3]: capable of inhibiting the growth

O=C(NO)c1ccc(CN(CCc2ccccc2)C(=O)Nc2ccccc2)cc1 [Compound 5h, N-hydroxy-4-((1-phenethyl-3-phenylureido)methyl)benzamide]
Growth inhibition of B16 melanoma cells (in words) [3]: capable of inhibiting the growth

COc1ccccc1N1C(=O)N(Cc2ccc(C(=O)NO)cc2)C(C)(C)C1=O [Compound 10a]
Fold Selective (HDAC1/HDAC6) ([1]; Table 2, cyclic urea compounds): 386 fold | IC50 [1, 19]: 0.0742 µM | IC50 [2, 20]: 28.6 µM

CC(C)[C@@H]1C(=O)N(c2ccccc2)C(=O)N1Cc1ccc(C(=O)NO)cc1 [Compound 10b]
Fold Selective (HDAC1/HDAC6) ([1]; Table 2, cyclic urea compounds): 531 fold | IC50 [1, 19]: 0.0222 µM | IC50 [2, 20]: 11.8 µM

O=C(NO)c1ccc(CN2C(=O)N[C@@H](Cc3ccccc3)C2=O)cc1 [Compound 11a]
Fold Selective (HDAC1/HDAC6) ([1]; Table 2, cyclic urea compounds): 295 fold | IC50 [1, 19]: 0.0256 µM | IC50 [2, 20]: 7.56 µM

CCCCN(Cc1ccc(C(=O)NO)cc1)C(=O)Nc1ncccn1 [JB6-22, 4-((1-butyl-3-(pyrimidin-2-yl)ureido)methyl)-N-hydroxybenzamide]
Selectivity (HDAC1/−6) ([1]; Table 1B): 281 | IC50 [1, 21]: 0.00976 µM | IL-10 production in antigen presenting cells [8]: inhibit IL-10 production | Cell proliferation of cancer cells [9]: decrease cell proliferation | acetyl-tubulin and acetylation status of Histone 3 [5]: increase acetyl-tubulin without modifying the acetylation status of Histone 3 | IC50 [2, 22]: 2.74 µM

CCCCN(Cc1ccc(C(=O)NO)cc1)C(=O)Nc1ccc2cn[nH]c2c1 [JB7-19, 4-((1-butyl-3-(1H-indazol-6-yl)ureido)methyl)-N-hydroxybenzamide]
Selectivity (HDAC1/−6) ([1]; Table 1B): 284 | IC50 [1, 21]: 0.00254 µM | IL-10 production in antigen presenting cells [8]: inhibit IL-10 production | Cell proliferation of cancer cells [9]: decrease cell proliferation | acetyl-tubulin and acetylation status of Histone 3 [5]: increase acetyl-tubulin without modifying the acetylation status of Histone 3 | IC50 [2, 22]: 0.721 µM

CCCCN(Cc1ccc(C(=O)NO)cc1)C(=O)Nc1cccc(N(C)C)c1 [JB7-20]
Selectivity (HDAC1/−6) ([1]; Table 1B): 99

Nc1ccccc1NC(=O)c1ccc(CNc2nccc(-c3cccnc3)n2)cc1 [MGCD0103]
Inhibition of proliferation, effective concentration range (in words) [10]: low micromolar range | acetylation of α-tubulin ([5]; Western blot, FIG. 41): unchanged | Cell cycle effects [11]: variable cell cycle effects

CN1CCc2c(c3ccccc3n2Cc2ccc(C(=O)NO)cc2)C1 [Tubastatin A]
Expression of MHC I [12]: increase of MHC1 | Antitumor effect [13]: strong antitumor effect | Inhibition of proliferation, effective concentration range (in words) [10]: low micromolar range | STAT3 phosphorylation [14]: decreased STAT3 phosphorylation | acetyl-tubulin and acetylation status of Histone 3 [5]: increase acetyl-tubulin without modifying the acetylation status of Histone 3 | T-cell activation by treated macrophages ([15]; in vitro): better activators of naIve T-cells | Expression of co-stimulatory molecules ([15]; macrophages): increased the expression of co-stimulatory molecules | IL-10 production ([15]; macrophages): inhibits IL-10 production | JAK2/STAT3 phosphorylation [16]: inhibits JAK2/STAT3 phosphorylation | Expression of melanoma antigens at the mRNA level [6]: upregulation of melanoma antigens | Tumor growth [7]: delayed tumor growth | Anti-melanoma effect in vivo ([7]; alone or in combination with anti-CLTA4): anti-melanoma effect | Antigen-specific T-cell responses to vaccination [17]: enhances antigen-specific T-cell responses

Nexturastat B
In vivo growth of B16 WT melanoma compared with control treatment [18]: not significantly different
